# Measured values as given in PMC5302928, “[^64Cu]XYIMSR-06: A dual-motif CAIX ligand for PET imaging of clear cell renal cell carcinoma” (Oncotarget, 2016).
# Read-outs that look alike come from different tables or passages of the source.
# What was measured:
# CAIX [1] = molecular target: T1, CAIX (Homo sapiens, UniProt Q16790); assay: Competitive fluorescence polarization assay with FITC-labeled dual-motif ligand; settings: 100 nM CAIX, 80 nM FITC-labeled ligand; read-out: IC50 (binding to CAIX, fluorescence polarization)
# T1 construct: purchased R&D Systems (Minneapolis, MN)
# Protocol: Fluorescence polarization (FP) experiments were performed in 21 μL of the assay buffer (12.5 mM Tris-HCl, pH 7.5, 75 mM NaCl) in transparent flat bottom 384 well Small Volume™ LoBase Microplates (Greiner Bio-One, Frickenhausen Germany). The FP reaction employed 100 nM of purified CAIX (R&D systems, Minneapolis, MN) and 80 nM FITC-labeled ligand within the assay buffer. The FP values were measured as mP units using the Safire2™ plate reader (Tecan, Morrisville, NC) with excitation at 475 nm and emission at 532 nm emission. 100 nM CAIX was incubated with serially diluted (from 8 μM to […]) concentrations of the three targeting molecules, 1 and [^63/65Cu]XYIMSR-06 for 30 min at room temperature in 384 well plates. 80 nM FITC-labeled ligand was added to each well and the reaction was incubated for 30 min at room temperature followed by FP measurements. Experiments were carried out in triplicate and the concentration resulting in 50% response (IC50) was calculated in GraphPad Prism 5 (GraphPad Software, La Jolla, CA) using the sigmoidal dose-response regression function. […]
# amino)butyl)-1H-1,2,3-triazol-1-yl)butyl)-6,9-dioxa- (FP) assay as described in the experimental section. The 3,12,15,19,23-pentaazaoctacosyl)-1,4,7-triazonane-1,4- IC50 values determined for dual motif precursor 1 (Figure diyl)diacetic acid ([Al19F]XYIMSR-04) . […]
# eluded at 35.5 min. MS, calculated for C H AlFN N Heart, lungs, pancreas, spleen, fat, brain, muscle, small […]
# and tumor were collected. Each organ was weighed and Radiosynthesis the tissue radioactivity was measured with an automated gamma counter (1282 Compugamma CS, Pharmacia/
# For convenience, Na18F in saline purchased from LKBNuclear, Inc., Mt. […] Due to was calculated by comparison with samples of a standard […]
# Radiosynthesis of [Al18F]XYIMSR-04. 400μg of Data were expressed as mean ± standard deviation XYIMSR-04 in 200 μL water/Ethanol 1:1 was added to (SD). […] To this mixture, 20 μL of 2 mM AlCl3/NaOAc significance was calculated using a paired t test. […]
# CAIX [2] = molecular target: T1, CAIX; design: method as in PMID 26418876; settings: positive control, reported value; read-out: IC50 (binding to CAIX, same method); cited from earlier work
Compound,IC50 (CAIX [1]) [nM],IC50 (CAIX [2]) [nM]
"CC(CCC(=O)NC(CC(=O)NC(CC(=O)NC(CCCCn1cc(CCCC(=O)Nc2nnc(S(N)(=O)=O)s2)nn1)C(=O)NCCOCCOCCN)C(=O)O)C(=O)O)(c1ccc(O)cc1)c1ccc(O)cc1 (stereo not shown) [Compound 1, reference compound]",63.6 ± 2.8,75.9
CC(CCC(=O)N[C@@H](CC(=O)N[C@@H](CC(=O)N[C@@H](CCCCn1cc(CCCC(=O)Nc2nnc(S(N)(=O)=O)s2)nn1)C(=O)NCCOCCOCCNC(=O)C[N+]12CC[N+]34CC[N+]5(CC1)CC(=O)[O][Al-3]235([F])[O]C(=O)C4)C(=O)O)C(=O)O)(c1ccc(O)cc1)c1ccc(O)cc1 (stereo partly shown) [[Al^19F]XYIMSR-04],96.7 ± 3.3,–
"CC(CCC(=O)N[C@@H](CC(=O)N[C@@H](CC(=O)N[C@@H](CCCCn1cc(CCCC(=O)Nc2nnc(S(N)(=O)=O)s2)nn1)C(=O)NCCOCCOCCNC(=S)Nc1ccc(CC2CN3CCN(CCN2CC(=O)O)CC(=O)[O][Cu][O]C(=O)C3)cc1)C(=O)O)C(=O)O)(c1ccc(O)cc1)c1ccc(O)cc1 (stereo partly drawn) [[^63/65Cu]XYIMSR-06, 2,2′,2″-(2-(4-(3-((11S,15S,19S)-15,19-Dicarboxy-24,24-bis(4-hydroxyphenyl)-10,13,17,21-tetraoxo-11-(4-(4-(4-oxo-4-((5-sulfamoyl-1,3,4-thiadiazol-2-yl)amino)butyl)-1H-1,2,3-triazol-1-yl)butyl)-3,6-dioxa-9,12,16,20-tetraazapentacosyl)thioureido)benzyl)-1,4,7-triazonane-1,4,7-triyl)triacetic acid]",156 ± 4.3,–
